According to patent US20160367705A1, “NANOPARTICLES COMPRISED OF SHELLS ASSOCIATED WITH CHARGED ENTITIES AND FORMED FROM MONOMERS AND METHODS OF MAKING AND USING NANOPARTICLES” (New York University, priority 2015, published 2016):

Assay: Dynamic light scattering (DLS) particle size
Type: physicochemical
Conditions: in chloroform; reverse micelles at w=11.9
Experimental: Samples for dynamic light scattering are prepared by dissolving 1 mg of sample into 4 mL of solvent. The solution was then filtered through a 0.45 μm syringe filter into quartz cuvette with a path length of 2 cm. The measurements are obtained on a Malvern Zetasizer Nano.
Solubility properties dictate that gluc anions reside in the aqueous polar region of the reverse micelle and remain associated with CDA through the pairing of carboxylate with the cationic […] head group of CDA.

Acetamido Cetyl Dimethyl Ammonium Glucuronate [CDA-gluc]
average diameter (DLS): 14 nm
